We go through twelve compounds from patent publication US20230339882A1, “SHP2 INHIBITOR AND COMPOSITION AND APPLICATION THEREOF” (Betta Pharmaceuticals Co., Ltd., priority 2020, published 2023).

Like-named read-outs stand apart in the source and are kept apart here.

One data set deals with hERG potassium channel (Homo sapiens (Human), UniProt Q12809). Description: Patch clamp experiments on the hERG ion channel (HEK293 cells overexpressing hERG). (In patch-clamp work, channel activity is measured electrically.)
The next data set relates to leukemia cells MV-4-11. Description: Cell proliferation assay, CELL TITER-GLO (CTG) luminescence, MV-4-11. The format is cell-based. An outline of the steps: (§1)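 NCI-H358 (2000 cells/well, ultra-low-attachment plates) and MV-4-11 cells were dosed 24 h after seeding at 1000 nM down to 0.1524 nM (3-fold steps). Viable-cell ATP was read by CellTiter-Glo luminescence after 96 h for NCI-H358 and 120 h for MV-4-11. IC50 came from a variable-slope fit of inhibition versus the 0 nM control.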
On the technique in general: Cellular ATP, detected with luciferase, serves as a proxy for viable cell number.

The next data set concerns the target SHP2 (Homo sapiens (Human), UniProt Q06124). Put plainly: SHP2 allosteric inhibitory enzyme activity assay (DiFMUP fluorescence). Format: biochemical. Conditions: read-out: SHP2 enzymatic activity IC50. The method, boiled down:
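Human SHP2 (0.2 ng) preincubated 1 h at room temperature with 25 µM activating peptide IRS1_pY1172(dPEG8)pY1222 and compound (10-point series from 10 µM) in HEPES/NaCl/KCl/BRIJ-35/EDTA/DTT buffer. DiFMUP then added for 1 h; fluorescence at ex 340/em 450 nm, normalized to no-enzyme and no-inhibitor controls, IC50 from variable-slope fit.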

Data set [1] deals with lung cancer cells NCI-H358. Description: Cell proliferation assay, CELL TITER-GLO (CTG) luminescence, NCI-H358. The format is cell-based. Conditions: cultured for 96 hrs. The method, boiled down:
as §1

Data set [2] in a line: In vitro metabolic stability in liver microsomes, dog. The conditions noted are these: for microsomal CLint at 2 µM: pH 7.3. The format is in vitro ADME. For orientation: Microsomes from liver hold many membrane-bound enzymes, among them those of drug oxidation.
Data set [3] in a line: In vitro metabolic stability in liver microsomes, human. Conditions: for microsomal CLint at 2 µM: pH 7.3, read-out: CLint (µL/min/mg protein) human. The format is in vitro ADME. As for the experimental part: (§2) Example D: In Vitro Metabolic Stability of Human and Rat Liver Microsomes Test Buffer Preparation
(§3) Dissolve 1900 mg of MgCl2 in 400 mL of ultrapure water.
(§4) Dissolve 17.42 g K2HPO4 and 13.65 g KH2PO4 into 1000 mL of ultrapure water, respectively. Mix a certain proportion of K2HPO4 and KH2PO4 to adjust the pH to 7.30 ± 0.10.
(§5) Prepare a solution of 10 ng/mL labetalol and 10 ng/mL glyburide in acetonitrile and store at 4° C.
(§6) Prepare 10 mM verapamil (positive control) and test article stock solutions in DMSO. Then, with MeOH/ACN/H2O solution (1:1:2 by volume), diluted to 50 µM and 200 µM working solutions, respectively.
(§7) experiment procedure: • 1) Add 40 µL MgCl2 and 306 µL PBS to 96 wells (set blank control group, positive control group, test compound sample group, and negative control group at the same time) • 2) Add 4 µL of compound working solution to each well (4 µL of PBS buffer for blank group) (Note: the final concentration of DMSO volume in the system is ≤ 0.5%) • 3) Add 10 µL of liver microsomes (concentration: 20 mg/mL) to each well, mix well, and pre-incubate at 37° C. for 10 minutes. • 4) Add 40 µL of 10 mM NADPH working solution to each well to start the reaction (add equal volume of PBS buffer for blank control group and negative control group respectively), the total reaction volume is 400 µL. • 5) Take out 50 µL samples from the above reaction solution at 0, 5, 15, and 45 minutes, and add 400 µL of reaction stop solution to stop the reaction • 6) Shake the sample after the termination of the reaction on a shaker for 5 minutes. • 7) Centrifuge the sample at 3200 rcf for 10 minutes. After the centrifugation is complete, transfer 50 µL of the supernatant to 200 µL of H2O for dilution for LC-MS/MS analysis.
(§8) Calculations of t½ and CLint are performed using the first-order kinetic equations: […]
(§9) where k represents the elimination constant, calculated from a log-linear plot of percentage remaining versus time. t½ represents half-life. Cprotein is the concentration of liver microsomes.

The nature of data set [4]: In vitro metabolic stability in liver microsomes, mouse. The format is in vitro ADME. Conditions: for microsomal CLint at 2 µM: pH 7.3, read-out: CLint (µL/min/mg protein) mouse.
Data set [5] in a line: In vitro metabolic stability in liver microsomes, monkey. The format is in vitro ADME. Conditions: for microsomal CLint at 2 µM: pH 7.3, read-out: CLint (µL/min/mg protein) monkey.
Data set [6] in a line: In vitro metabolic stability in liver microsomes, rat. The format is in vitro ADME. The conditions noted are these: for microsomal CLint at 2 µM: pH 7.3, read-out: CLint (µL/min/mg protein) rat. As for the experimental part: as §2, §3, §4, §5, §6, §7, §8, §9
The mark [7] stands for this setting: Homo sapiens, MV4-11, cultured for 120 hrs.
[8] abbreviates: Homo sapiens, NCI-H358, ultra-low adsorption plate.
Setting [9] is: read-out: hERG, patch clamp, peak tail current, HEK293.

Chain of hERG potassium channel (Q12809 whole entry): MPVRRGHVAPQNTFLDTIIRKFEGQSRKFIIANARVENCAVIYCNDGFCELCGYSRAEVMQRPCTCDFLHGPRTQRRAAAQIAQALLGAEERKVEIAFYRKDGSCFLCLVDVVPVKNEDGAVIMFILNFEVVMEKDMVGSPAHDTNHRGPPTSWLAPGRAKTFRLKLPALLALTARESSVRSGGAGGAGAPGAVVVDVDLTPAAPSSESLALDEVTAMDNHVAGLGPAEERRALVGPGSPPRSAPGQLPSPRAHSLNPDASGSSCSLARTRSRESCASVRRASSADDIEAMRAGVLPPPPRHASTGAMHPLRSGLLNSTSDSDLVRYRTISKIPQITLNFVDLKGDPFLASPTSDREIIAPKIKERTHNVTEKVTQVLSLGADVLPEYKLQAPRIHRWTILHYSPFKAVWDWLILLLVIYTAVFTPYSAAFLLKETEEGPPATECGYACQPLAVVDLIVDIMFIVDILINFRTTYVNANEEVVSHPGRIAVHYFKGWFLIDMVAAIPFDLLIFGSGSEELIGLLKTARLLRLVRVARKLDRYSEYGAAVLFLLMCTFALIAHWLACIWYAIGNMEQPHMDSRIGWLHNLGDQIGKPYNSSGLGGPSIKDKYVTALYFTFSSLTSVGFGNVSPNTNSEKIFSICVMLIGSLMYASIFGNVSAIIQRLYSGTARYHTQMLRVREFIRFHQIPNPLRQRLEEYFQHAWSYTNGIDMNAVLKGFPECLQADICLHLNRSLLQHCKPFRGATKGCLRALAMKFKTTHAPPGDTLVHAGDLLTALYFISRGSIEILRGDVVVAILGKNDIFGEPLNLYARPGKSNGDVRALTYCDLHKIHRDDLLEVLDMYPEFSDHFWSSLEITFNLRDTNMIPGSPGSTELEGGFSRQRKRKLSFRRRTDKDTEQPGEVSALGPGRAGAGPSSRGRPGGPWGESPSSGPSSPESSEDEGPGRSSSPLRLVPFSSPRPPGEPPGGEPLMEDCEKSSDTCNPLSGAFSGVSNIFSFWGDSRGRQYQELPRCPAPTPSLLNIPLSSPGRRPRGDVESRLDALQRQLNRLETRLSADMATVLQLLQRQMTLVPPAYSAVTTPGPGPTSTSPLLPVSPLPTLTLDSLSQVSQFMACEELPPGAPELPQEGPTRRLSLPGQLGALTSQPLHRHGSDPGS
Chain of SHP2 (Q06124 whole entry): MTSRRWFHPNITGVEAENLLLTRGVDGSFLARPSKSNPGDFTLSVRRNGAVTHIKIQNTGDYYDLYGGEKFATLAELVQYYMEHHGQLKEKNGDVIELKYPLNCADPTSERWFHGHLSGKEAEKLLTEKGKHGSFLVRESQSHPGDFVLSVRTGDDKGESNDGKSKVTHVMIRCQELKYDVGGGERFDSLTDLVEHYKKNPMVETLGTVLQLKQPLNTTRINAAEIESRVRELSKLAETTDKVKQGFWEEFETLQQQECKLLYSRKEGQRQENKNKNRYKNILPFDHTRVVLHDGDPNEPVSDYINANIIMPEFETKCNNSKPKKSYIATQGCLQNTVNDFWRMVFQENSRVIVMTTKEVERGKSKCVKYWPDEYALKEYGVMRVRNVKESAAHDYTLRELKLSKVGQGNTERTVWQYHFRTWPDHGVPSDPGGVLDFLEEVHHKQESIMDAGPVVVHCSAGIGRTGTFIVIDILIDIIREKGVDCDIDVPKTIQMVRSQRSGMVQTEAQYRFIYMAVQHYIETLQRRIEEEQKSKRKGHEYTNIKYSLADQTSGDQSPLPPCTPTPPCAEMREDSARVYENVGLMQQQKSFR
Method for hERG potassium channel: Example C Patch Clamp Experiments to Assess the Effects of Compounds on the hERG Ion Channel
Dilute the test sample diluent in sequence with extracellular fluid to prepare detection solutions with final concentrations of 0.3 µM, 1 µM, 3 µM, 10 µM and 30 µM. The solubility of the samples to be tested was visually checked.
The cell line was derived from HEK293 cells and cultured in a 37° C., 5% CO2 incubator. In order to prevent cell senescence caused by contact inhibition, when the cell culture confluence should not exceed 80%, the cells should be passaged every ¾ days, and the inoculation density of each T175 flask should be 2*106 cells. Pre-wash with Phosphate Buffered Saline (PBS), then trypsin/EDTA for 2-3 minutes, stop digestion by adding cell culture medium, and transfer to a new culture bottle.
HEK293 cells overexpressing the hERG potassium channel were cultured overnight at a cell density below 50%. Experimental cells were transferred to a cell bath embedded in an inverted microscope stage(Diaphot, Nikon) and perfused with extracellular fluid. The extracellular fluid contained 130 mM NaCl, 4 mM KCl, 1.8 mM CaCl2, 1 mM MgCl2, 10 mM glucose and 10 mM HEPES (pH 7.4 with NaOH) at a perfusion rate of 4 ml/min. The inner tube contains 130 mM KCl, 1 mM MgCl2, 5 mM EGTA, 5 mM MgATP and 10 mM HEPES (pH 7.2 with KOH). Membrane currents were recorded using a HEKA EPC-10 patch-clamp amplifier and [sequence] acquisition system (HEKA Instruments Inc., D-67466 Lambrecht, Pfalz, Germany). All experiments were done at room temperature (22-23° C.).
Electrodes (BF150-86-10) were straightened during the experiments using a P-97 microelectrode puller (Sutter Instrument Company, One Digital Drive, Novato, CA 94949). The inner diameter of the electrode is 1-1.5 mm, and the water entry resistance after filling with internal liquid is 2-4 MΩ.
When the whole-cell seal is formed, wait for the current to stabilize for 2 minutes (the current decay is less than 5% within 5 minutes, and the tail current value is greater than500 pA). At this time, the peak value of the tail current is the control current value. The extracellular fluid containing the drug to be tested is then perfused. The same procedure was repeated 3-5 times, exposing each cell to 4-6 increasing concentrations of compounds. Blocking and deactivation of hERG during compound exposure and washout were continuously recorded.
When the whole-cell seal was formed, the cell membrane voltage was clamped at -80 mV, depolarized for 2 seconds every 12 seconds, and the clamping voltage was depolarized from -80 mV to -50 mV under a 5-second repolarization pulse of -50 mV. Measure the peak tail current.
Peak hERG tail currents were measured under a 5 s repolarization pulse of -50 mV. Each drug concentration was plotted against the current inhibition rate as a function of the logarithm of the compound concentration. The following Hill equation was used to fit a concentration-response curve to fit IC50.
Y: test value; Bottom: the lowest test value (0); Top: the highest test value (1); Hillcoefficient: the maximum absolute value of the slope of the curve.
Data are presented as mean ± standard deviation.

For `NC(=O)Cc1ccc(OCC#Cc2cnc(N3CCC4(CC3)Cc3ccccc3[C@H]4N)c(CO)n2)cc1` [Compound A71, (S)-2-(4-((3-(5-(1-amino-1,3-dihydrospiro[indene-2,4′-piperidin]-1′-yl)-6-(hydroxylmethyl)pyrazin-2-yl)prop-2-yn-1-yl)oxy)phenyl)ace tamide], the IC50 against hERG potassium channel was greater than 20000 nM; with leukemia cells MV-4-11 (setting [7]), 2.3 nM; at SHP2, 2.9 nM; in [1] (setting [8]), 4.3 nM.
Take `NC(=O)Cc1cccc(OCC#Cc2cnc(N3CCC4(CC3)Cc3ccccc3[C@H]4N)c(CO)n2)c1` [Compound A59, (S)-2-(3-((3-(5-(1-amino-1,3-dihydrospiro[indene-2,4′-piperidin]-1′-yl)-6-(hydroxymethyl)pyrazin-2-yl)prop-2-yn-1-yl)oxy)phenyl)acetamide]: the IC50 against hERG potassium channel is 26000 nM; in the data set with leukemia cells MV-4-11 (setting [7]) it was 1 nM; at SHP2 it was 1.1 nM; in data set [1] (setting [8]), 5.8 nM. The microsomal CLint at 2 µM in data set [2] (dog, microsomes) turned out to be 14.9 µL/min/mg; in data set [3], 10.7 µL/min/mg; in data set [4] it was 16.8 µL/min/mg; in [5], 15.9 µL/min/mg; in data set [6], 16.2 µL/min/mg.
In the case of `CC(=O)Nc1cccc(OCC#Cc2cnc(N3CCC4(CC3)Cc3ccccc3[C@H]4N)c(C(N)=O)n2)c1` [Compound A41], the results for the IC50 at hERG potassium channel (setting [9]) and on SHP2 were greater than 20000 nM and 14 nM, respectively.
For `CP(C)(=O)c1ccc(OCC#Cc2cnc(N3CCC4(CC3)Cc3ccccc3[C@H]4N)c(CO)n2)cc1` [Compound A57], the IC50 at hERG potassium channel (setting [9]) is greater than 20000 nM; in the data set on leukemia cells MV-4-11 (cultured for 120 hrs), 10 nM; at SHP2, 4.3 nM; in data set [1] (ultra-low adsorption plate), 22 nM.
Consider `Nc1cc(OCC#Cc2cnc(N3CCC4(CC3)Cc3ccccc3[C@H]4N)c(CO)n2)ccn1` [Compound A26, (S)-(3-(1-amino-1,3-dihydrospiro [indene-2,4′-piperidine]-1′-yl)-6-(3-((2-Aminopyridin-4-yl)oxy)prop-1-yn-1-yl)pyrazin-2-yl) methanol], for which the IC50 with leukemia cells MV-4-11 (setting [7]) stood at 1.8 nM; at SHP2 it was 1.6 nM; in [1] (setting [8]) it was 5.2 nM. Also, the microsomal CLint at 2 µM in data set [2] (dog, microsomes) was 1.2 µL/min/mg; in data set [3] it was 2.2 µL/min/mg; in data set [4], 9.8 µL/min/mg; in data set [5], 6.3 µL/min/mg; in data set [6], 9 µL/min/mg.
As for `NC(=O)c1cccc(OCC#Cc2cnc(N3CCC4(CC3)Cc3ccccc3[C@H]4N)c(CO)n2)c1` [Compound A27, (S)-3-((3-(5-(1-amino-1,3-dihydrospiro[indene-2,4′-piperidine]-1′-yl)-6-(hydroxymethyl)pyrazin-2-yl)prop-2-yn-1-yl)oxy)benzamide], the IC50 with leukemia cells MV-4-11 (setting [7]) stood at 1.4 nM; on SHP2, 1.9 nM; in data set [1] (setting [8]), 1.5 nM. Besides, the microsomal CLint at 2 µM in [2] (dog, microsomes) was found to be 4.8 µL/min/mg; in data set [3], 4 µL/min/mg; in [4], 17.7 µL/min/mg; in data set [5] it was 15.9 µL/min/mg; in [6] it was 7.5 µL/min/mg.
As to `NC(=O)c1ccc(OCC#Cc2cnc(N3CCC4(CC3)Cc3ccccc3[C@H]4N)c(CO)n2)cc1Cl` [Compound A54, (S)-4-((3-(5-(1-amino-1,3-dihydrospiro[indene-2,4′-piperidin]-1′-yl)-6-(hydroxymethyl)pyrazin-2-yl)prop-2-yn-1-yl)oxy)-2-chlorobenzamide], the IC50 was found to be 1.6 nM with leukemia cells MV-4-11 (setting [7]), 0.7 nM at SHP2 and 2.2 nM in data set [1] (setting [8]). Besides, the microsomal CLint at 2 µM was 12.8 µL/min/mg in data set [2] (dog, microsomes); 12.1 µL/min/mg in [3]; 10.4 µL/min/mg in data set [4]; 13.7 µL/min/mg in [5]; 12.8 µL/min/mg in data set [6].
With `N[C@@H]1c2ccccc2CC12CCN(c1ncc(C#CCOc3ccncc3)nc1CO)CC2` [Compound A18, (S) - (3-(1-amino-1,3-dihydrospiro [indene-2,4′-piperidine]-1′-yl)-6-(3-(pyridin-4-oxy)prop-1-yn-1-yl)pyrazin-2-yl) methanol], the values for the IC50 against hERG potassium channel and on SHP2 were greater than 20000 nM and 35 nM, respectively.
On to `NC(=O)c1ccc(OCC#Cc2cnc(N3CCC4(CC3)Cc3ccccc3[C@H]4N)c(CO)n2)cc1F` [Compound A50, (S)-4-((3-(5-(1-amino-1,3-dihydrospiro[indene-2,4′-piperidin]-1′-yl)-6-(hydroxymethy 1)pyrazin-2-yl)prop-2-yn-1-yl)oxy)-2-fluorobenzamide], for which the IC50 is 2.2 nM with leukemia cells MV-4-11 (cultured for 120 hrs), 1.7 nM at SHP2 and 3.3 nM in data set [1] (ultra-low adsorption plate). For the same compound, the “CLint (µL/min/mg protein) dog” value in data set [2] (dog, microsomes) came out at 5.2 µL/min/mg protein. In addition, the “CLint (µL/min/mg protein) human” value in [3] came out at 7.4 µL/min/mg protein. In data set [4], the “CLint (µL/min/mg protein) mouse” value was 3.1 µL/min/mg protein. The “CLint (µL/min/mg protein) monkey” value in data set [5] amounted to 5.9 µL/min/mg protein. The “CLint (µL/min/mg protein) rat” value in data set [6] is recorded as 11.4 µL/min/mg protein.
For the compound `N[C@@H]1c2ccccc2CC12CCN(c1ncc(C#CCNC(=O)c3ccccc3)nc1CO)CC2` [Compound A45], the figures for the IC50 (in the data set on leukemia cells MV-4-11 (cultured for 120 hrs); on SHP2; in [1] (ultra-low adsorption plate)) were 20 nM, 4.7 nM and 40 nM, respectively. Further, the “CLint (µL/min/mg protein) dog” value in data set [2] (dog liver microsomes) stood at 9.6 µL/min/mg protein. Also, the “CLint (µL/min/mg protein) human” value in data set [3] was determined as 5.2 µL/min/mg protein. Also, the “CLint (µL/min/mg protein) mouse” value in [4] worked out at 6.3 µL/min/mg protein. Moreover, in [5], the “CLint (µL/min/mg protein) monkey” value was determined as 3.2 µL/min/mg protein. In data set [6], the “CLint (µL/min/mg protein) rat” value came out at 7.9 µL/min/mg protein.
As to `N[C@@H]1c2ccccc2CC12CCN(c1ncc(C#CCNc3ncco3)nc1CO)CC2` [Compound A60], the results for the IC50 (in the data set with leukemia cells MV-4-11 (cultured for 120 hrs); at SHP2; in data set [1] (ultra-low adsorption plate)) were 13 nM, 1.6 nM and 41 nM, respectively. The “CLint (µL/min/mg protein) dog” value in data set [2] (dog liver microsomes) is 10.8 µL/min/mg protein. Further, the “CLint (µL/min/mg protein) human” value in data set [3] worked out at 9.9 µL/min/mg protein. The “CLint (µL/min/mg protein) mouse” value in data set [4] stood at 15.1 µL/min/mg protein. Also, the “CLint (µL/min/mg protein) monkey” value in data set [5] was 16.9 µL/min/mg protein. Further, in data set [6], the “CLint (µL/min/mg protein) rat” value was found to be 10.4 µL/min/mg protein.
Regarding `Cn1nccc1NCC#Cc1cnc(N2CCC3(CC2)Cc2ccccc2[C@H]3N)c(CO)n1` [Compound A61, (S)-(3-(1-amino-1,3-dihydrospiro[indene-2,4′-piperidin]-1′-yl)-6-(3-((1-methyl-1H-pyrazol-5-yl)amino)prop-1-yn-1-yl)pyrazin-2-yl)methanol], the results for the IC50 (in the data set on leukemia cells MV-4-11 (setting [7]); at SHP2; in [1] (setting [8])) were 5.1 nM, 1.8 nM and 9.4 nM, respectively. Also, the microsomal CLint at 2 µM came to 14.5 µL/min/mg in [2] (dog, microsomes); 13 µL/min/mg in data set [3]; 14.1 µL/min/mg in data set [4]; 6.1 µL/min/mg in data set [5]; 15.9 µL/min/mg in data set [6].
